Results published in ChEMBL document CHEMBL1201862, “PubChem BioAssay data set” (2004).
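Protocol summary: plate cells (96-well), add compound at 5 concentrations, incubate 48 h, interpolate endpoints linearly. Abbreviation: GI50, concentration required for 50% inhibition of growth.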 Active and inactive are the calls of the source. Cut-off read from the data, not from the text of the source: active = GI50 up to about 1.1 µM and inactive = higher.

What was measured:
Assay in all cases: inhibition of tumour cell growth, NCI panel, 48 h
[1] = test system: SNB-19
[2] = test system: U-251
[3] = test system: SN12C
[4] = test system: HL-60
[5] = test system: M14
[6] = test system: SNB-78
[7] = test system: RPMI-8226
[8] = test system: OVCAR-3
[9] = test system: HCC 2998
[10] = test system: HOP-62
[11] = test system: NCI-H460
[12] = test system: NCI-H522
[13] = test system: SNB-75
[14] = test system: IGROV-1
[15] = test system: LOX IMVI
[16] = test system: UACC-257
[17] = test system: SF-539
[18] = test system: K562
[19] = test system: HOP-92
[20] = test system: SF-268
[21] = test system: SK-MEL-2
[22] = test system: CCRF-CEM
[23] = test system: TK-10
[24] = test system: SK-MEL-5
[25] = test system: UACC-62
[26] = test system: M19-MEL
[27] = test system: HCT-15
[28] = test system: COLO 205
[29] = test system: CAKI-1
[30] = test system: ACHN
[31] = test system: RXF 393
[32] = test system: DMS-273
[33] = test system: Malme-3M
[34] = test system: KM12
[35] = test system: A549
[36] = test system: OVCAR-5
[37] = test system: LXFL 529
[38] = test system: DLD-1
[39] = test system: SK-MEL-28
[40] = test system: OVCAR-8
[41] = test system: A498
[42] = test system: 786-0
[43] = test system: SK-OV-3
[44] = test system: NCI-H23
[45] = test system: SW-620
[46] = test system: HCT-116
[47] = test system: SF-295
[48] = test system: UO-31
[49] = test system: MOLT-4
[50] = test system: DMS-114
[51] = test system: OVCAR-4
[52] = test system: EKVX
[53] = test system: NCI-H226
[54] = test system: SR
[55] = test system: XF498
[56] = test system: KM-20L2
[57] = test system: HT-29

Measured: GI50

CCOc1ccccc1C=C1c2ccccc2C(=O)c2ccccc21
804 nM: [27]
inactive: [1] 3630 nM | [2] 4370 nM | [3] 6560 nM | [4] 2990 nM | [5] 5830 nM | [6] 5750 nM | [7] 3810 nM | [8] 2500 nM | [9] 3630 nM | [10] 3760 nM | [11] 4150 nM | [12] 2360 nM | [13] 2170 nM | [14] 3580 nM | [15] 8690 nM | [16] 4210 nM | [17] 2160 nM | [18] 3320 nM | [19] 5480 nM | [20] 5070 nM | [21] 2940 nM | [22] 4320 nM | [23] 4560 nM | [24] 2750 nM | [25] 3340 nM | [26] 5930 nM | [28] 3780 nM | [29] 2110 nM | [30] 8630 nM | [31] 2040 nM | [33] 8150 nM | [35] 5160 nM | [36] 12800 nM | [37] 6980 nM | [38] 2550 nM | [39] 12000 nM | [40] 5270 nM | [41] 6750 nM | [42] 3380 nM | [43] 3030 nM | [44] 4060 nM | [45] 3720 nM | [46] 4630 nM | [47] 3820 nM | [48] 2590 nM | [49] 4300 nM | [50] 3420 nM | [51] 22100 nM | [52] 3230 nM
active: [32] 535 nM | [34] 673 nM

CCCCCC(=O)N[C@H]1CCc2cc(OC)c(OC)c(OC)c2-c2ccc(SC)c(=O)cc21
20.9 nM: [27]
inactive: [36] 47300 nM | [51] 17500 nM
active: [1] 25.8 nM | [2] 22.4 nM | [3] 31.5 nM | [4] < 10 nM | [53] < 10 nM | [5] 16 nM | [6] 4.19 nM | [7] 18.1 nM | [8] 15.3 nM | [9] 21.2 nM | [54] 4.21 nM | [10] 32 nM | [11] < 10 nM | [55] 23.9 nM | [13] 19.5 nM | [14] 24.1 nM | [16] < 10 nM | [17] 15.8 nM | [18] < 10 nM | [19] < 10 nM | [20] 21.2 nM | [22] 25.4 nM | [23] 521 nM | [24] 14 nM | [25] 20.4 nM | [26] 22.9 nM | [28] 12.2 nM | [29] 91.4 nM | [30] 37.4 nM | [33] 10.6 nM | [34] < 10 nM | [35] 30.6 nM | [37] 20.4 nM | [38] < 10 nM | [39] 22.3 nM | [40] 25.3 nM | [41] 17.2 nM | [42] 33.5 nM | [56] 15.4 nM | [43] 22.4 nM | [44] < 10 nM | [45] 17.7 nM | [57] 23.3 nM | [46] 20 nM | [47] 15.5 nM | [48] 30.8 nM | [49] 51.6 nM | [50] < 10 nM | [52] 39.5 nM
